This note sets out measurements from PMC7018657, “Molecular Determinants of Substrate Selectivity of a Pneumococcal Rgg-Regulated Peptidase-Containing ABC Transporter” (mBio, 2020).

Assay [1] deals with Sp9-BS68 rtgS1 promoter (PrtgS1-luc; RtgR-dependent). Briefly: RtgS dose-response assay, PrtgS1-luc reporter, Sp9-BS68 ΔrtgS1. The class given is cell-based, Streptococcus pneumoniae Sp9-BS68. The settings on record: for induction of rtgS1 promoter: Sp9-BS68 PrtgS1-luc, CDM+ and THY; for Maximal response / EC50: Sp9-BS68 ΔrtgS1, mean ± SE from Hill fit, 3 independent experiments, max PrtgS1 activity within 60 min; for EC50: synthetic peptide added at OD620 0.02, luminescence, 37°C. On the procedure: (§1) FIG 2 The Rgg/SHP-like RtgR/RtgS system regulates rtg. (A) rtgR and rtgS1 are required for rtg activation in Sp9-BS68. Sp9-BS68 PrtgS1-luc reporters were grown in CDM+ or THY and monitored for rtg activation (dark, left y axis) and cell density (light, right y axis). Plots show medians (lines) and 25% to 75% quantiles (shading) from 12 wells pooled from 3 independent experiments. (B) Translated rtgS gene products from Sp9-BS68 and D39. The type-defining residues are highlighted in red. (C) rtgS1 but not rtgS2 is required for rtg activation in D39. D39 PrtgS1-luc reporters were grown in CDM+ and monitored for rtg activation (dark, left y axis) and cell density (light, right y axis). Plots show medians (lines) and 25% to 75% quantiles (shading) from 30 wells pooled from 3 independent experiments. C-terminal fragments of RtgSA induce rtg in an RtgR-dependent manner. Sp9-BS68 PrtgS1-luc reporters were grown in CDM+ and THY (D) or CDM+ only (E) to an OD620 of 0.02 and treated with synthetic RtgSA fragments. Response was defined as the maximum observed PrtgS1 activity within 60 min of treatment. Data in panel D were fitted to the four-parameter Hill model (curves). Plotted data points represent means ± SEs from 3 independent experiments. […] A D39 ΔrtgS1 ΔrtgS2 PrtgS1-luc reporter was grown in CDM+ to an OD620 of 0.02 and treated with synthetic RtgS fragments. Response was defined as the maximum observed PrtgS1 activity within 60 min of treatment. Data were fitted to the four-parameter Hill model (curves). Plotted data points represent means ± SEs from 3 independent experiments. […] A D39 ΔrtgS1 ΔrtgS2 PrtgS1-luc reporter was grown in CDM+ to an OD620 of 0.02 and treated simultaneously with 2 nM RtgSA-C10 and various concentrations of RtgSB-C10. Response was defined as the maximum observed PrtgS1 activity within 120 min of treatment. Plotted data points represent means ± SEs from 3 independent experiments. **, P < 0.01; ***, P < 0.001 versus 0 nM RtgSB-C10 by ANOVA with Dunnett’s correction for multiple comparisons.
(§2) All strains were derived from Sp9-BS68 ([36]), D39, or the R6 strain P654 (referred to as PSD100 in reference) (see Table S1 and methods in Text S1 in the supplemental material for details). […] Pneumococcus was grown in either filter-sterilized THY (Todd Hewitt broth plus 0.5% yeast extract) or CDM+ (see methods in Text S1) ([38]) at 37°C. All media contained 5 μg/ml catalase. All CDM+ was supplemented with 0.5% (vol/vol) THY. Except where noted otherwise, pneumococcal cultures used for experiments were inoculated to an OD620 of 0.0015 from starter cultures grown in THY (pH 7.4) to an OD620 of 0.275 and frozen at −80°C in 13% glycerol. Starter cultures were pelleted at 6,000 × g for 5 min at room temperature and resuspended in the appropriate growth medium for the experiment before being used for inoculation. Antibiotics were used at the following concentrations: chloramphenicol, 2 μg/ml; gentamicin, 200 μg/ml; kanamycin, 500 μg/ml; spectinomycin, 200 μg/ml; streptomycin, 100 μg/ml.
Cells expressing PrtgS1-luc reporters were grown in THY or CDM+ containing 330 μM firefly luciferin. At an OD620 of 0.02, cultures were aliquoted into a white, clear-bottom 96-well plate (655098; Greiner Bio-One), 100 μl per well. Each well of the plate was prefilled with 100 μl sterile medium containing 0.5% (vol/vol) dimethyl sulfoxide (DMSO), 330 μM firefly luciferin, and appropriate concentrations of synthetic RtgS peptide (Genscript). The plate was then incubated in a Synergy HTX plate reader set to read absorbance at 620 nm and luminescence every 5 min. For D39 strains only, the plate was shaken before readings were taken. PrtgS1 activity was calculated, and the response was defined as the maximum observed PrtgS1 activity within 60 min (Sp9-BS68) or 120 min (D39) of treatment. When applicable, curves were fit to a Hill model using the nls() function in R 3.5.1.

For assay [2], the target named is T1, D39 PrtgS1-luc (rtg locus) (Streptococcus pneumoniae, UniProt A0ACD7PPC8).
T1 sequence (A0ACD7PPC8 1-287): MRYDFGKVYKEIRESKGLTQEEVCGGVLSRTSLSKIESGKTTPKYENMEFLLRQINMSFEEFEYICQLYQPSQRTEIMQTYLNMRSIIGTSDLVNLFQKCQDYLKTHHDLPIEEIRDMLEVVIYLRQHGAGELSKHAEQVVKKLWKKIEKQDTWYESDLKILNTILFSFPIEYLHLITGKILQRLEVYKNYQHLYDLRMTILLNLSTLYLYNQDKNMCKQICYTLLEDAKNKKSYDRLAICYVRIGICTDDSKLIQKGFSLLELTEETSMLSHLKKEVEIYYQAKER
Briefly: Competitive dose-response assay of RtgSB-C10 against RtgSA-C10, D39 ΔrtgS1 ΔrtgS2 PrtgS1-luc. The class given is cell-based. The settings on record: CDM+. On the procedure:
FIG 2 The Rgg/SHP-like RtgR/RtgS system regulates rtg. (A) rtgR and rtgS1 are required for rtg activation in Sp9-BS68. Sp9-BS68 PrtgS1-luc reporters were grown in CDM+ or THY and monitored for rtg activation (dark, left y axis) and cell density (light, right y axis). Plots show medians (lines) and 25% to 75% quantiles (shading) from 12 wells pooled from 3 independent experiments. (B) Translated rtgS gene products from Sp9-BS68 and D39. The type-defining residues are highlighted in red. (C) rtgS1 but not rtgS2 is required for rtg activation in D39. D39 PrtgS1-luc reporters were grown in CDM+ and monitored for rtg activation (dark, left y axis) and cell density (light, right y axis). Plots show medians (lines) and 25% to 75% quantiles (shading) from 30 wells pooled from 3 independent experiments. C-terminal fragments of RtgSA induce rtg in an RtgR-dependent manner. […]
(§3) Cells expressing PrtgS1-luc reporters were grown in THY or CDM+ containing 330 μM firefly luciferin. […] The plate was then incubated in a Synergy HTX plate reader set to read absorbance at 620 nm and luminescence every 5 min. For D39 strains only, the plate was shaken before readings were taken. PrtgS1 activity was calculated, and the response was defined as the maximum observed PrtgS1 activity within 60 min (Sp9-BS68) or 120 min (D39) of treatment. […]

Assay [3] deals with T1, D39 PrtgS1-luc (rtg locus). The assay can be described thus: RtgS dose-response assay, PrtgS1-luc reporter, D39 ΔrtgS1 ΔrtgS2. The format is cell-based. The settings on record: CDM+; for Maximal response: mean ± SE from Hill fit, 3 independent experiments, max PrtgS1 activity within 60 min / 120 min (methods). On the procedure:
as §1, §2, §3

In assay [4] the test system is Sp9-BS68 PrtgS1-luc in ΔpptAB and ΔamiCD mutants. The assay can be described thus: Response of ΔpptAB and ΔamiCD PrtgS1-luc reporters to exogenous RtgS. The format is cell-based, Streptococcus pneumoniae Sp9-BS68. Particulars: CDM+, RtgSA-C10 at OD620 0.02, max within 60 min, 3 independent experiments. On the procedure: Supplementary file : FIG S1 Ami and PptAB are required for RtgR/S signaling. (A) Both Ami and PptAB are required for natural rtg autoinduction. Sp9-BS68 PrtgS1-luc reporters were grown in CDM+ and monitored for rtg activation (dark, left y axis) and cell density (light, right y axis). Plots show medians (lines) and 25% to 75% quantiles (shading) from 30 wells per strain pooled from 3 independent experiments. […] Sp9-BS68 PrtgS1-luc reporters were grown in CDM+ to an OD620 of 0.02 and treated with RtgSA-C10. Response was defined as the maximum observed PrtgS1 activity within 60 min of treatment. Plotted data points represent means ± SEs from 3 independent experiments. Download FIG S1, PDF file, 0.6 MB.
Cells expressing PrtgS1-luc reporters were grown in THY or CDM+ containing 330 μM firefly luciferin. At an OD620 of 0.02, cultures were aliquoted into a white, clear-bottom 96-well plate (655098; Greiner Bio-One), 100 μl per well. […] The plate was then incubated in a Synergy HTX plate reader set to read absorbance at 620 nm and luminescence every 5 min. For D39 strains only, the plate was shaken before readings were taken. PrtgS1 activity was calculated, and the response was defined as the maximum observed PrtgS1 activity within 60 min (Sp9-BS68) or 120 min (D39) of treatment. […]

Where no end group is shown, it is not given here. Some results are limits rather than exact numbers.

Usually EC50 stands for the midpoint of the concentration-response curve.

For the sequence IFPWGWPI [RtgSA-C8], the “induction of rtgS1 promoter” value in assay [1] was “induced expression from the Sp9-BS68 rtgS1 promoter in both CDM+ and THY”. For the same sequence, the figures for the Maximal response in assay [1] (CDM+) and in assay [1] (THY) were 212.2 ± 9.4 10^3 RLU·min^−1·OD620^−1 and 229.7 ± 8.6 10^3 RLU·min^−1·OD620^−1, respectively. Also, the EC50 in assay [1] (CDM+) was 2.53 ± 0.25 nM; in assay [1] (THY), 184 ± 15 nM.

With AIIFPWGWSI [RtgSB-C10], the “antagonism of RtgSA-C10” value in assay [2] (high concentrations with 2 nM RtgSA-C10, 3 independent experiments) is “antagonize RtgSA-C10”. In addition, in assay [2] (simultaneous with 2 nM RtgSA-C10, max PrtgS1 activity within 120 min, 3 independent experiments), the “concentration antagonizing RtgSA-C10” value is reported as at least 256 nM. In assay [3], the “rtg induction / type of agonism” value is listed as “partial agonist” and the Maximal response was 21.2 ± 1.5 10^3 RLU·min^−1·OD620^−1. Also, the “EC50 value larger than that of RtgSA-C10 (ratio)” value in assay [3] (versus RtgSA-C10) is 55 fold.

As for SLAIIFPWGWPI [RtgSA-C12], the “induction of rtgS1 promoter” value in assay [1] is “induced expression from the Sp9-BS68 rtgS1 promoter in both CDM+ and THY”. Further, in assay [1] (CDM+), the Maximal response is listed as 213.9 ± 8.0 10^3 RLU·min^−1·OD620^−1 and the EC50 stood at 3.51 ± 0.28 nM. For the same sequence, in assay [1] (THY), the Maximal response is 210.1 ± 13.1 10^3 RLU·min^−1·OD620^−1 and the EC50 stood at 315 ± 42 nM.

Regarding AIIFPWGWPI [RtgSA-C10], in assay [4], the “rescue of rtg activation by exogenous RtgS” value is reported as “rescues rtg activation defect in the ΔpptAB mutant but not the ΔamiCD mutant”. For the same sequence, the “induction of rtgS1 promoter” value in assay [1] is “induced expression from the Sp9-BS68 rtgS1 promoter in both CDM+ and THY”. Also, in assay [1] (CDM+), the Maximal response is reported as 205.7 ± 9.1 10^3 RLU·min^−1·OD620^−1 and the EC50 amounted to 1.63 ± 0.19 nM. In assay [1] (THY), the Maximal response is given as 232.4 ± 14.3 10^3 RLU·min^−1·OD620^−1 and the EC50 is 47.4 ± 6.9 nM. Besides, in assay [3], the “rtg induction / type of agonism” value was “induces rtg similarly to Sp9-BS68” and the Maximal response is 75.1 ± 8.1 10^3 RLU·min^−1·OD620^−1.
